Here are results for 15 compounds from article PMC4097020 (Psychopharmacology, 2014).

In series [1] the target is T1, human D4.4 receptor (Homo sapiens, UniProt P21917).
T1 sequence (P21917 1-419): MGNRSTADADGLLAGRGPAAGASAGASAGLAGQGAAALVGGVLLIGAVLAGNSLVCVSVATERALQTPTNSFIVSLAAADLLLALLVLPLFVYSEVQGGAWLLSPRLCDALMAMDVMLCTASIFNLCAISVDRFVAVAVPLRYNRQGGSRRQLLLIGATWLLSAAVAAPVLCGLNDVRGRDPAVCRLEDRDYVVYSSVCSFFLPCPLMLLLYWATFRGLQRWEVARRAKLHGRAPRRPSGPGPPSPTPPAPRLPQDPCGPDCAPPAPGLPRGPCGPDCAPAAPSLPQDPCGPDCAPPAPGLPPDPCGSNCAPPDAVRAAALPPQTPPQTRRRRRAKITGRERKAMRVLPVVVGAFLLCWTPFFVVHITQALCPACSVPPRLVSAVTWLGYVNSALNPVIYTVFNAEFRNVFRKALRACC
Description: biochemical. The format is binding.

Series [2] addresses T2, recombinant human D2 receptor (Homo sapiens, UniProt P14416). As to the kind of experiment: biochemical. The format is binding.
The test system of series [3] is nontransfected HEK-293 cells. As to the kind of experiment: IP-1 accumulation in nontransfected HEK-293 cells. It is filed as cell-based, human. Conditions: (+)mefloquine 100 μM, 5-HT 1 μM, LSD 10 nM.
The target in series [4] is T2, recombinant human D2 receptor. Description: cell-based. It is filed as cell-based.
In series [5] the target is T3, recombinant human D3 receptor (Homo sapiens, UniProt P35462). Conditions: for agonist activity at hD3 receptor, mitogenesis (in words): compared to quinpirole.
Series [6] has as its target T4, h5-HT2A receptor (Homo sapiens, UniProt P28223). Description: IP-1 formation in HEK-h5-HT2A cells. The format is cell-based. The settings on record: for agonist character at h5-HT2A receptor, IP-1 formation (in words): compared to 5-HT.
In series [7] the target is T4, h5-HT2A receptor. It is filed as binding.
In series [8] the target is T4, h5-HT2A receptor. It is filed as binding. This is another data set of the same source.
The target in series [9] is T5, recombinant human 5-HT1A receptor (Homo sapiens, UniProt P08908).
T5 sequence (P08908 1-422): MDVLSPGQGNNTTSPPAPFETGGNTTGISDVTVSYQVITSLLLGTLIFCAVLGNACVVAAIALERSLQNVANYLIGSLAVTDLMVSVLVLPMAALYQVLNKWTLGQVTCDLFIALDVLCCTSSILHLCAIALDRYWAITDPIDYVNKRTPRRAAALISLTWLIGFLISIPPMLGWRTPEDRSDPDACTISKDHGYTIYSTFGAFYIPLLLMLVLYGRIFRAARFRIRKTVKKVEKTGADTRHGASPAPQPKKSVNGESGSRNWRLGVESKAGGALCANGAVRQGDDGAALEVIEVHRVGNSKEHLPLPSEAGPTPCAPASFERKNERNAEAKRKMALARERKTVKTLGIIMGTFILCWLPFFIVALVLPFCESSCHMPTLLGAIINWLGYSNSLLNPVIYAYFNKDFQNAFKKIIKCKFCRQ
Description: [3H]8-OH-DPAT binding to HEK-h5-HT1A cell membranes.

Series [10] deals with recombinant human 5-HT2A receptor (Homo sapiens, UniProt P28223). Description: [125I]DOI binding to HEK-h5-HT2A cell membranes.
The target of series [11] is T6, recombinant human norepinephrine transporter (Homo sapiens, UniProt P23975). Description: biochemical. It is filed as binding.
For series [12], the target named is recombinant human D1 receptor (Homo sapiens, UniProt P21728). As to the kind of experiment: [3H]SCH23390 binding to LhD1 cells. The settings on record: read-out: D1 [3H]SCH23390 Ki (nM) ± SEM.
Series [13] concerns the target T3, recombinant human D3 receptor. Description: [3H]YM 09151-2 binding to CHOp-D3 cells.
Series [14] has as its target T7, recombinant human dopamine transporter (Homo sapiens, UniProt Q01959). Description: [125I]RTI-55 binding to HEK-hDAT cells.
For series [15], the target named is T7, recombinant human dopamine transporter. Description: [3H]dopamine uptake by HEK-hDAT cells. It is filed as cell-based.
For series [16], the target named is T6, recombinant human norepinephrine transporter. As to the kind of experiment: cell-based.
Series [17] addresses T8, recombinant human 5-HT2C receptor (Homo sapiens, UniProt P28335).
T8 sequence (P28335 33-458): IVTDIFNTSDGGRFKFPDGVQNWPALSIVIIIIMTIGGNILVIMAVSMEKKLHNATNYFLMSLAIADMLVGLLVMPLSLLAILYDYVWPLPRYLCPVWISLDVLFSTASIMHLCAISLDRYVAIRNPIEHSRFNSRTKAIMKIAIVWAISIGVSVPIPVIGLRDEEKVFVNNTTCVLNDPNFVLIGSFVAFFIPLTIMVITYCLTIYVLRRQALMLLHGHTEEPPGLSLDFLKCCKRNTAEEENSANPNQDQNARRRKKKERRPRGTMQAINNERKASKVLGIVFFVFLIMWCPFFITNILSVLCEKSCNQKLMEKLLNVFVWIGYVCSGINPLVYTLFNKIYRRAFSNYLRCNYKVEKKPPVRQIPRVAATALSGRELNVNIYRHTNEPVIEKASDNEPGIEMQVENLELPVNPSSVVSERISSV
As to the kind of experiment: biochemical. It is filed as binding.

Series [18] concerns the target T9, h5-HT2C receptor (Homo sapiens, UniProt P28335).
T9 sequence (P28335 33-458): T8 sequence (P28335 33-458)
As to the kind of experiment: cell-based.

The conditions of series [19]: prophylactic use; from 8.7 to 14 mg/kg with free/whole brain ratio […].
For series [20] the following is noted: varies by preparation, ref Wiedekam et al., 1998, cited from earlier work.
Setting [21] is: read-out: D2 [3H]YM 09151-2 Ki, in μM.
The mark [22] stands for this setting: read-out: D4.4 [3H]YM 09151-2 Ki, in μM.
Where [23] appears, read: read-out: h5-HT2C [125I]DOI Ki (nM) ± SEM, HEK-h5-HT2C membranes.

Each structure is given as a SMILES string. Like-named read-outs stand apart in the source and are kept apart here. Marks after values point to notes of the source that are not given here.

T3 sequence (P35462 whole entry): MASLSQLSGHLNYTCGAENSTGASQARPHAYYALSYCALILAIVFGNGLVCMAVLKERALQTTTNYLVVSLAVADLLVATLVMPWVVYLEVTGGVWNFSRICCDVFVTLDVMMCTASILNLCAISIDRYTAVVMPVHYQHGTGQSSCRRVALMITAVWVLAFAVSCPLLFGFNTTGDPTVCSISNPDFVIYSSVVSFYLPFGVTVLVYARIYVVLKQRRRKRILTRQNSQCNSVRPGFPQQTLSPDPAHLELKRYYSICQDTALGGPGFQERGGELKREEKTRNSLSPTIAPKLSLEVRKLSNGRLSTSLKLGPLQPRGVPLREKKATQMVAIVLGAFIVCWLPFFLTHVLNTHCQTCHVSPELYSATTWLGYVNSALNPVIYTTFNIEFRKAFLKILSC
T2 sequence (P14416 whole entry): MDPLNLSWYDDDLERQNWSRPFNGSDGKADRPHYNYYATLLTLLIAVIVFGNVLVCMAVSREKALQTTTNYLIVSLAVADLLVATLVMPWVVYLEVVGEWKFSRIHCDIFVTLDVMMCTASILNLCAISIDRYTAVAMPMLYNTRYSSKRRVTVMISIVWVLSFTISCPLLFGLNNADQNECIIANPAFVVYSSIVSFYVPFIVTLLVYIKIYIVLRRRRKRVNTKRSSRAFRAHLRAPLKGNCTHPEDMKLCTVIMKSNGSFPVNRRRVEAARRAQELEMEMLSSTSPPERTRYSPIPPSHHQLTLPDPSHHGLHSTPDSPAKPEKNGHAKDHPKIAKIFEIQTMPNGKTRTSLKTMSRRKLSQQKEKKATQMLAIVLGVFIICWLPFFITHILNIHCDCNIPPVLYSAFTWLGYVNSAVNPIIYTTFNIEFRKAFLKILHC
T4 sequence (P28223 whole entry): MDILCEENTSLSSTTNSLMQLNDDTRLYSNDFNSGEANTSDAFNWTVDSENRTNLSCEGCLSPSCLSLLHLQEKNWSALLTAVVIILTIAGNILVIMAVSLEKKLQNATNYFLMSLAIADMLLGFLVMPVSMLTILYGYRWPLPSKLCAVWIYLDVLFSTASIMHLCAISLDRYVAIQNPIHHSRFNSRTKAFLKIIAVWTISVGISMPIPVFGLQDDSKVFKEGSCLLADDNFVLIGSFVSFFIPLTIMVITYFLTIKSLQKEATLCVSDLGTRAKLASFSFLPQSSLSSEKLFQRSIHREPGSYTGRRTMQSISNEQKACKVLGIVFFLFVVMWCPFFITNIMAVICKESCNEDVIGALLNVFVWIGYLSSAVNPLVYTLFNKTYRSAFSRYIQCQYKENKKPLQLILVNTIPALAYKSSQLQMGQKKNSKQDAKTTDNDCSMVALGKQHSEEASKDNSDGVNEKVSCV
T6 sequence (P23975 whole entry): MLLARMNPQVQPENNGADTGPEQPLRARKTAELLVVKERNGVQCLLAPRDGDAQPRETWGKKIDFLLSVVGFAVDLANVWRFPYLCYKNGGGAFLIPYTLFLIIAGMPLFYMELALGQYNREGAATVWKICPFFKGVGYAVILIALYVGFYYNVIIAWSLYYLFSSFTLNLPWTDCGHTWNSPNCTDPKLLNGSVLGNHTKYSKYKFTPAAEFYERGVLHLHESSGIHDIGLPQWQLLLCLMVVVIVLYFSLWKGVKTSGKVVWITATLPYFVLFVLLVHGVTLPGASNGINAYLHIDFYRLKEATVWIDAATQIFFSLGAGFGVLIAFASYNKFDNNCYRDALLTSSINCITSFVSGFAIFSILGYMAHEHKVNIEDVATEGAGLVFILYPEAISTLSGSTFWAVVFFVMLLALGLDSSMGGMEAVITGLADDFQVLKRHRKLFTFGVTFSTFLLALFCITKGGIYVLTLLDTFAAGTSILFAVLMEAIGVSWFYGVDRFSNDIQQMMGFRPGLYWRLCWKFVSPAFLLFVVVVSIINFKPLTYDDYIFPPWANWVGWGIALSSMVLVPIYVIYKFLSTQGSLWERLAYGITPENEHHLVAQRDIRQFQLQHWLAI
T7 sequence (Q01959 whole entry): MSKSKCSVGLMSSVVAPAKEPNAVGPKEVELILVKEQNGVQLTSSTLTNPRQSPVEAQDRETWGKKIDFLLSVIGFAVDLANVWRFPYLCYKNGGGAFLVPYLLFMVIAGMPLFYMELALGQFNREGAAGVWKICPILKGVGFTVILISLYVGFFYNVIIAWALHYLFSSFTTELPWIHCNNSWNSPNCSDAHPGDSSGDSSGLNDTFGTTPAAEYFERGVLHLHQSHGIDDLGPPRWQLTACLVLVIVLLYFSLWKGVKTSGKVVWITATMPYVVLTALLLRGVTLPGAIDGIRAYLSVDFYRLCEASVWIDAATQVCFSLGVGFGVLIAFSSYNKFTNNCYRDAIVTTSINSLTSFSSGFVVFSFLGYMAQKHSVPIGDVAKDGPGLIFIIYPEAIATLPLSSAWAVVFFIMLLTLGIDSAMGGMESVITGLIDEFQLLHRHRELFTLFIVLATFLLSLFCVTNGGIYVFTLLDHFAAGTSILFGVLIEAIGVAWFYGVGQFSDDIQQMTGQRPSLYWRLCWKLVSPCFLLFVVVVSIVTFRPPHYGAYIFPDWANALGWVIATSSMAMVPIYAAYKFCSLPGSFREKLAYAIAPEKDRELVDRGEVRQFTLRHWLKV
Chain of recombinant human 5-HT2A receptor (P28223 whole entry): as the sequence (P28223 whole entry) above
Chain of recombinant human D1 receptor (P21728 whole entry): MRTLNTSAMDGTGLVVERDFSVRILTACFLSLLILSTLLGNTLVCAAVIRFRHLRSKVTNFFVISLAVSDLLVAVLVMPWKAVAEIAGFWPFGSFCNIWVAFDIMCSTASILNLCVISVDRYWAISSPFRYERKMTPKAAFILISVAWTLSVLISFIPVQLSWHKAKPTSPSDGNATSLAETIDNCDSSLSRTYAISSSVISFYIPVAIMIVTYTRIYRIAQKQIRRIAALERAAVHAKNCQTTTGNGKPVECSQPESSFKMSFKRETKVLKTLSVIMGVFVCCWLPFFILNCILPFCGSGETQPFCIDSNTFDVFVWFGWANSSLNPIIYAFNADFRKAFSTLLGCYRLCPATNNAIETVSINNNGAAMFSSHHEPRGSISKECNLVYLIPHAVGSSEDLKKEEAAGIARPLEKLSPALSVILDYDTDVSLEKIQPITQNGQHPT

For orientation: Ki means the equilibrium dissociation constant of an inhibitor or competing ligand from its target. As for `CCN(CC)CCCC(C)Nc1ccnc2cc(Cl)ccc12` (racemic) [Chloroquine, (RS)-N′-(7-chloroquinolin-4-yl)-N, N-diethyl-pentane-1,4-diamine], in series [1], the inhibition constant Ki was more than 10 µM.

`OC(c1cc(C(F)(F)F)nc2c(C(F)(F)F)cccc12)C1CCCCN1` (single isomer, unassigned; (-)) [(−)-Mefloquine]: the inhibition constant (Ki) in series [2] (setting [21]) and in series [1] (setting [22]) was more than 10 µM in each case.

In the case of `NCCc1c[nH]c2ccc(O)cc12` [5-HT, serotonin], the “effect on IP-1 accumulation in nontransfected cells (in words)” value (“effect on IP-1 accumulation” below) in series [3] is recorded as “no effect”.

For the compound `O[C@H](c1cc(C(F)(F)F)nc2c(C(F)(F)F)cccc12)[C@@H]1CCCCN1` [(+)-Mefloquine], the Ki in series [2] (setting [21]) and in [1] (setting [22]) was more than 10 µM each time. In [4] (against quinpirole), the “antagonist activity at D2 receptor, mitogenesis (in words)” value is listed as “no antagonist activity”. Also, in [4] (compared to quinpirole), the “agonist activity at hD2 receptor, mitogenesis (in words)” value is reported as “no agonist activity”. The “effect on IP-1 accumulation” value in series [3] is listed as “no effect”. Besides, the “antagonist activity at D3 receptor, mitogenesis (in words)” value in series [5] (against quinpirole) is listed as “fully antagonized”. The “D3 mitogenesis % inhibition” value in series [5] (antagonism of quinpirole (30 nM)-stimulated mitogenesis) is recorded as 97.3 ± 2.7%. In addition, in series [5], the “agonist activity at hD3 receptor, mitogenesis (in words)” value is reported as “no agonist activity”.

By inhibition is commonly meant the drop in the measured response relative to a control, in per cent. On to `CC(C)(C)[C@]1(O)CCN2C[C@H]3c4ccccc4CCc4cccc(c43)[C@@H]2C1` [Butaclamol], for which the inhibition at 0.03 µM in series [4] (read-out: D2 mitogenesis % inhibition) worked out at 98.1 ± 1.9%.

The EC50 is the concentration giving half of the maximal effect. For `CN(C)CCc1c[nH]c2ccccc12` [DMT, N,N-dimethyltryptamine], in series [6], the EC50 came out at 227 ± 64 nM and the “agonist character at h5-HT2A receptor, IP-1 formation (in words)” value (“agonist character at h5-HT2A receptor” for short) was “partial agonist”. In series [7], this compound displayed a Ki of 53 ± 10 nM. For the same compound, in [8], the Ki turned out to be 175 ± 42 nM.

Take `COc1cc(CC(C)N)c(OC)cc1C` (centres unmarked) [DOM, 2,5-dimethoxy-4-methylamphetamine]: the Ki in series [9] was determined as 14200 nM; in series [10] it was 4.3 ± 1.2 nM; in [7], 2.06 ± 0.52 nM; in [8] it was 13.7 ± 6 nM. In [6], this compound yielded an EC50 of 24.7 ± 8.5 nM. In series [6], the “agonist character at h5-HT2A receptor” value is listed as “full agonists”. In addition, the “Ratio ketanserin/DOI Ki” value in series [8] (h5-HT2A, Ki [3H]ketanserin over Ki [125I]DOI) is 6.65 ^**.

Consider `CCN(CC)C(=O)[C@@H]1C=C2c3cccc4[nH]cc(c34)C[C@H]2N(C)C1` [LSD, lysergic acid diethylamide], for which, in series [6], the “agonist character at h5-HT2A receptor” value is reported as “full agonists”. Moreover, the Ki in series [11] (read-out: Norepinephrine transporter, inhibition of [125I]RTI-55 binding Ki (nM) ± SEM) was 5600 nM; in series [12], 273 ± 89 nM; in [2] (read-out: D2 [3H]YM 09151-2 Ki (nM) ± SEM) it was 0.0388 ± 0.0018 µM; in series [13] (read-out: D3 [3H]YM 09151-2 Ki (nM) ± SEM) it was 27.1 ± 1.3 nM; in [1] (read-out: D4.4 [3H]YM 09151-2 Ki (nM) ± SEM) it was 0.33 ± 0.12 µM. Further, the “D2 mitogenesis % stimulation” value in series [4] is listed as 47.9 ± 6.2%. Besides, the “agonist activity at hD2 receptor, mitogenesis (in words)” value in series [4] is “partial agonist”. In addition, the EC50 in series [4] (read-out: D2 mitogenesis EC50 (nM) ± SEM (n)) amounted to 18.1 nM; in series [5] (read-out: D3 mitogenesis EC50 (nM) ± SEM (n), agonist mode, NC: the data did not converge), 48 ± 14 nM. Besides, the “effect on IP-1 accumulation” value in series [3] is reported as “no effect”. The “agonist activity at hD3 receptor, mitogenesis (in words)” value in series [5] is “full agonist”. Moreover, the “D3 mitogenesis % stimulation” value in [5] (normalized to the maximal stimulation by quinpirole) is listed as 104.4 ± 6.1%.

For orientation: IC50 means the midpoint of a concentration-inhibition curve. On to `C=C[C@H]1C[N@@]2CC[C@H]1C[C@H]2[C@H](O)c1ccnc2ccc(OC)cc12` [Quinine, (R)-(6-Methoxyquinolin-4-yl)((2S,4S,8R)-8-vinylquinuclidin-2-yl)methanol], for which the inhibition constant Ki in [14] is more than 8300 nM; in [11], more than 5500 nM. Besides, the IC50 in [15] and in series [16] was more than 10000 nM in each case.

Regarding `C[C@H](N)Cn1ccc2cc(F)c(Cl)cc21` [Ro60-0175], in [17] (setting [23]), the Ki came out at 7.3 ± 1.6 nM.

Turning to `Cc1cc2c(cc1Cl)N(C(=O)Nc1ccc(Oc3cccnc3C)nc1)CC2` [SB242087], the Ki in series [9] was more than 9300 nM; in [10], 120 ± 32 nM; in [17] it was 11.4 ± 4 nM. In addition, the IC50 in [18] stood at 0.167 ± 0.061 nM. Besides, in series [18], the “h5-HT2C IP1 formation % inhibition” value turned out to be 93.7 ± 5.5%.

Take `CN1CCc2cc(Cl)c(O)cc2C(c2ccccc2)C1` (centres unmarked) [SCH23390, 7-chloro-3-methyl-1-phenyl-1,2,4,5-tetrahydro-3-benzazepin-8-ol]: the results for the Ki in series [2] and in [1] were 0.887 ± 0.017 µM and 9.7 ± 1.1 µM, respectively.

Take `Oc1cc2c(cc1O)C(c1ccccc1)CNCC2` (centres unmarked) [SKF 38393, 1-phenyl-2,3,4,5-tetrahydro-1H-3-benzazepine-7,8-diol]: the Ki in [13] was found to be 4300 ± 1800 nM; in series [1], 28 ± 13 µM.

On to `COc1ccccc1N1CCN(CCN(C(=O)C2CCCCC2)c2ccccn2)CC1` [WAY 100635], for which the Ki in series [17] (setting [23]) was 3000 nM.

The term Cmax denotes the maximum level reached in the sampled fluid or tissue. Take `OC(c1cc(C(F)(F)F)nc2c(C(F)(F)F)cccc12)C1CCCCN1` (stereo not drawn) [mefloquine, [(R*, S*)-2,8-bis(trifluoromethyl)quinolin-4-yl]-(2-piperidyl)methanol]: the “increase of IP-1 above basal activity in transfected cells” value in series [6] (HEK-h5-HT2A and HEK-h5-HT2C transfected cells together, 100 μM (+)mefloquine, Fig 2c) is 3–5 fold. In addition, the “free mefloquine in brain, translated from brain levels” value in [19] was 100 to 135 nM. For the same compound, the maximum concentration (Cmax) in series [20] (conversion of 1018 μg/L) was approximately 2600 nM; in series [20], 1018 ng/mL.
